# Data reported in patent US6384193B1, “Agents for the regulation of oestrogen synthesis” (Imperial College of Science Technology and Medicine, priority 1996, dated 2002).
# How the values were obtained:
# [1] = tested on: MCF-7 breast cancer cells; conditions: MCF-7 cells, Singh et al. 1995, cited from earlier work
# aromatase activity = conditions: IL-6 stimulated fibroblasts derived from sub-cutaneous adipose tissue; Singh et al. 1995; cited from earlier work
# [2] = tested on: IL-6 plus IL-6sR stimulated aromatase activity; test: IL-6 plus IL-6sR stimulated aromatase activity in fibroblasts derived from normal breast tissue; assay type: cell-based; conditions: Arohib 125 μM added 3 h prior to IL-6 50 ng/ml + IL-6sR 100 ng/ml, serum-free medium
# Procedure: Aromatase activity was assessed in primary cultures of stromal fibroblasts derived from sub-cutaneous adipose tissue. Cells were grown until 80% confluent when they were washed with Earle's balanced salt solution (5 ml) and cultured for 24 h in phenol red-free, serum-free Eagle's minimum essential medium. Experimental media were then added in the presence of dexamethasone (100 nmol/l), IL-6 (50 ng/ml, Bachem, Cambridge, U.K.), or IL-6 plus IL-6sR (250 ng/ml, R & D System Europe Ltd., Abingdon, U.K.) and incubated for a further 48 h.
# Aromatase activity was assayed in intact fibroblast monolayers by measuring the production of hu 3H2O from [1β-^3H] androstenedione (15-30 Ci/mmol, NEN-DuPont, Stevenage, U.K.) over a 20 h period (Newton et al., 1986). Aromatase activity measured under these conditions was linear with respect to time for up to 20 h (Macdiarmid et al., 1994). Cell number was determined by counting cell nuclei using a Coulter counter.
# To examine the ability of Arohib to block the interaction of IL-6sR with gp130, fibroblasts were derived from normal breast tissue and cultured in growth medium containing fetal calf serum. When cells were 80% confluent, this medium was removed and replaced with serum-free medium. Cells were then treated as shown below with the results illustrated in FIG. 2.
Compound,effect on IL-6sR release [1],further results
4-hydroxytamoxifen [4-OHT],small stimulatory effect,effect on oestradiol-induced increase of IL-6sR release ([1]; with oestradiol): blocked the ability of oestradiol to increase IL-6sR release
"C[C@]12CC[C@@H]3c4ccc(O)cc4CC[C@H]3[C@@H]1CC[C@@H]2O [Oestradiol, oestradiol]",markedly increased,
IL-6: cytokine interleukin-6,,aromatase activity (in words) (aromatase activity): Significant arbmatase activity was detectable
TNFα,markedly increased,
"YRLRFELRYRAERSKT (PEPTIDE (1)..(16) sequence of a synthetic peptide corresponding to the regulatory site residues 249-264 of interleukin-6 receptor (IL-6R)) [Arohib, 16 amino acid peptide based upon part of the IL-6R external domain]",,reduction in the ability of IL-6/IL-6sR to stimulate aromatase activity [2]: 67%
